# Experimental data: US20240287093A1, “HIGH ACTIVITY STING PROTEIN AGONIST” (ADLAI NORTYE BIOPHARMA CO., LTD., priority 2018, published 2024)
# Legend:
# Assay type in all cases: cell-based
# STING variants (WT) = molecular target: T1, STING variants (WT) (Homo sapiens, UniProt Q86WV6); assay: SEAP reporter assay in HEK-Blue ISG KO-STING cells transfected with STING WT variant (Method 1); conditions: 24 h
# T1 construct: host or cells: HEK-Blue ISG KO-STING cells (Invivogen, hkb-kostg)
# Text: (§1) Example I: STING Variants (WT & HAQ) Activation by Compounds in HEK-Blue™ ISG KO-STING Cells (Method 1)
# (§2) Activation of STING can be determined using a SEAP reporter assay in HEK-Blue™ ISG KO-STING cells (Invivogen, cat #hkb-kostg) transfected with plasmids expressing STING variants (WT & HAQ) (referred to WO2017/175147A1). STING variants (WT & HAQ) vector were constructed based on STING-232H vector (Origene, RC208418). GFP vector (VT2069) was bought from Youbio. The detailed protocol as follows: HEK-Blue™ ISG KO-STING cells were harvest and seeding into 96 well plate, the final cell number was 0.8×10^5 cells/well. Transfections were prepared using Lipofectamine 2000 (Invitrogen, Cat #11668-027) following the manufacturer's instructions (Lipo2000:DNA=1:10), 20 ul of transfection suspension containing 1 ng STING vector was added to cell culture plate and incubated at 37° C., 5% CO2 for 24 h. After 24 hours incubation, compounds were added at proper concentration, and the final DMSO concentration was 0.5%. After 24 h incubation, the supernatant was collected to detect SEAP signal using Great EscAPe SEAP chemiluminescence KIT (Clontech, cat #631738) and cells were collected to detect cell viability using CellTiter-Glo Luminescent Cell Viability Assay (Promega, cat #G7573) following the manufacturer's instructions. The data were described by the ratio of the stimulating signal of compounds to 0.5% DMSO.
# STING variants (HAQ) = molecular target: T2, STING variants (HAQ) (Homo sapiens, UniProt Q86WV6, G230A/R293Q/R71H); assay: SEAP reporter assay in HEK-Blue ISG KO-STING cells transfected with STING HAQ variant (Method 1); conditions: 24 h
# T2 construct: host or cells: HEK-Blue ISG KO-STING cells (Invivogen, hkb-kostg)
# T2 sequence (Q86WV6 whole entry R71H/G230A/R293Q): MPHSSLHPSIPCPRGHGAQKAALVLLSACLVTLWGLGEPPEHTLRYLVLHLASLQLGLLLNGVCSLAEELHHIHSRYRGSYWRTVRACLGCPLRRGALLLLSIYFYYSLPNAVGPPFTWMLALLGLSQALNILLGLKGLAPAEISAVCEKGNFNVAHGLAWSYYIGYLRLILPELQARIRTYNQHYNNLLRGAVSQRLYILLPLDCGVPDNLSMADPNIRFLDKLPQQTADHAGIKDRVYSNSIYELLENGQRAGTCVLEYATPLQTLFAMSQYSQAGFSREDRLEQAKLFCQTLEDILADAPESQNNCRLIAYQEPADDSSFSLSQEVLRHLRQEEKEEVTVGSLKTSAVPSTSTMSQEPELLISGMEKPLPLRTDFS
# Text: as §1, §2
# STING = molecular target: T3, STING (Homo sapiens, UniProt Q86WV6, G230A/H232R/R293Q/R71H); assay: IFNβ release from THP1 by STING activation (hIFNβ ELISA); conditions: THP1 cells, 24 h, IFN-β in supernatant; inactive = IFNβ not detected at the maximum concentration of compounds
# T3 construct: THP1 was purchased from National Collection of Authenticated Cell Cultures (Cat #TCHu 57); host or cells: THP1
# T3 sequence (Q86WV6 whole entry R71H/G230A/H232R/R293Q): as the sequence (Q86WV6 whole entry R71H/G230A/R293Q) above, with H232R counted along it
# Description: Example III: Compound Stimulate THP1 to Release IFNβ by STING Activation
# In this assay, activation of STING by compounds was evaluated by detecting their ability to stimulate the secretion of IFN-β (interferon-beta) from THP1. THP1 was purchased from National Collection of Authenticated Cell Cultures (Cat #TCHu 57). The top dose of compounds was setted according to their solubility. First, Compounds were 3 times diluted with medium, 8-dose points in total. The final DMSO concentration was 0.2%. THP1 during the logarithmic phase was resuspended to 2×10^6 cells/ml in assay medium. The THP1-cell suspension was dispensed into a 96-well U bottom plate containing 50 ul of compound diluted in medium. After 24 h incubation at 37° C., 5% CO2, the supernatant was collected. The concentration of IFN-β in the supernatant was measured using a human IFNβ ELISA KIT (R&D, DY814-05). The data was fitted with GraphPad Prism or XLfit to calculate EC50 values.
# [1] = compound concentration 31.25 μM, SEAP signal ratio to 0.5% DMSO
# [2] = compound concentration 115.2 μM
# [3] = compound concentration 206.6 μM
# [4] = compound concentration 75.95 μM
# [5] = compound concentration 153.2 μM
# [6] = compound concentration 125.3 μM
# [7] = compound concentration 127.7 μM
smiles,measurement,setting,value
"CCn1nc(C)cc1C(=O)Nc1nc2cc(C(N)=O)cc3c2n1[C@@H](CCCNC(=O)OCc1ccccc1)CO3 [Example 1, Benzyl (S)-(3-(7-carbamoyl-2-(1-ethyl-3-methyl-1H-pyrazole-5-carboxamido)-3,4-dihydro-5-oxa-1,2a-diazaacenaphthylen-3-yl)propyl)carbamate]","Fold change related to DMSO control, WT",STING variants (WT); [1],3.08 fold
same,"Fold change related to DMSO control, HAQ",STING variants (HAQ); [1],21.49 fold
same,"hIFNβ ELISA (EC50, μM)",STING,inactive
"CCn1nc(C)cc1C(=O)Nc1nc2cc(C(N)=O)cc3c2n1[C@H](CCCNC(=O)OCc1ccccc1)CO3 [Example 2, Benzyl (R)-(3-(7-carbamoyl-2-(1-ethyl-3-methyl-1H-pyrazole-5-carboxamido)-3,4-dihydro-5-oxa-1,2a-diazaacenaphthylen-3-yl)propyl)carbamate]","Fold change related to DMSO control, WT",STING variants (WT); compound concentration 77.9 μM,2.25 fold
same,"Fold change related to DMSO control, HAQ",STING variants (HAQ); compound concentration 77.9 μM,6.46 fold
same,"hIFNβ ELISA (EC50, μM)",STING,inactive
"CCn1nc(C)cc1C(=O)Nc1nc2cc(C(N)=O)cc3c2n1[C@@H](CCNC(=O)COc1ccccc1)CO3 [Example 7, (S)-2-(1-Ethyl-3-methyl-1H-pyrazole-5-carboxamido)-3-(2-(2-phenoxyacetamido)ethyl)-3,4-dihydro-5-oxa-1,2a-diazaacenaphthylene-7-carboxamide]","Fold change related to DMSO control, WT",STING variants (WT); [2],2.70 fold
same,"Fold change related to DMSO control, HAQ",STING variants (HAQ); [2],13.64 fold
same,"hIFNβ ELISA (EC50, μM)",STING,inactive
"CCn1nc(C)cc1C(=O)Nc1nc2cc(C(N)=O)cc3c2n1[C@@H](CCNC(=O)OCc1cccnc1)CO3 [Example 8, Pyridin-3-ylmethyl (S)-(2-(7-carbamoyl-2-(1-ethyl-3-methyl-1H-pyrazole-5-carboxamido)-3,4-dihydro-5-oxa-1,2a-diazaacenaphthylen-3-yl)ethyl)carbamate]","Fold change related to DMSO control, WT",STING variants (WT); compound concentration 73.3 μM,3.47 fold
same,"Fold change related to DMSO control, HAQ",STING variants (HAQ); compound concentration 73.3 μM,13.17 fold
same,"hIFNβ ELISA (EC50, μM)",STING,inactive
"CCn1nc(C)cc1C(=O)Nc1nc2cc(C(N)=O)cc3c2n1[C@@H](CCNC(=O)OCc1ccccn1)CO3 [Example 9, Pyridin-2-ylmethyl (S)-(2-(7-carbamoyl-2-(1-ethyl-3-methyl-1H-pyrazole-5-carboxamido)-3,4-dihydro-5-oxa-1,2a-diazaacenaphthylen-3-yl)ethyl)carbamate]","Fold change related to DMSO control, WT",STING variants (WT); [3],2.86 fold
same,"Fold change related to DMSO control, HAQ",STING variants (HAQ); [3],21.28 fold
same,"hIFNβ ELISA (EC50, μM)",STING,inactive
"CCn1nc(C)cc1C(=O)Nc1nc2cc(C(N)=O)cc3c2n1CCO3 [Example 11, 2-(1-Ethyl-3-methyl-1H-pyrazole-5-carboxamido)-3,4-dihydro-5-oxa-1,2a-diazaacenaphthylene-7-carboxamide]","Fold change related to DMSO control, WT",STING variants (WT); compound concentration 27.9 μM,2.26 fold
same,"Fold change related to DMSO control, HAQ",STING variants (HAQ); compound concentration 27.9 μM,4.20 fold
same,"hIFNβ ELISA (EC50, μM)",STING,inactive
CCn1nc(C)cc1C(=O)Nc1nc2cc(C(N)=O)cc3c2n1[C@@H](C)CO3 [Example 12],"Fold change related to DMSO control, WT",STING variants (WT); compound concentration 52.6 μM,3.31 fold
same,"Fold change related to DMSO control, HAQ",STING variants (HAQ); compound concentration 52.6 μM,27.37 fold
same,EC50,STING,> 8.9 µM
"CCn1nc(C)cc1C(=O)Nc1nc2cc(C(N)=O)cc3c2n1[C@@H](CCNC(=O)/C=C/c1ccccc1)CO3 [Example 15, (S)-3-(2-Cinnamamidoethyl)-2-(1-ethyl-3-methyl-1H-pyrazole-5-carboxamido)-3,4-dihydro-5-oxa-1,2a-diazaacenaphthylene-7-carboxamide]","Fold change related to DMSO control, WT",STING variants (WT); [4],3.68 fold
same,"Fold change related to DMSO control, HAQ",STING variants (HAQ); [4],20.00 fold
same,"hIFNβ ELISA (EC50, μM)",STING,inactive
"CCn1nc(C)cc1C(=O)Nc1nc2cc(C(N)=O)cc3c2n1C[C@@H](C)O3 [Example 16, (R)-2-(1-Ethyl-3-methyl-1H-pyrazole-5-carboxamido)-4-methyl-3,4-dihydro-5-oxa-1,2a-diazaacenaphthylene-7-carboxamide]","Fold change related to DMSO control, WT",STING variants (WT); compound concentration 42.8 μM,3.00 fold
same,"Fold change related to DMSO control, HAQ",STING variants (HAQ); compound concentration 42.8 μM,15.06 fold
same,"hIFNβ ELISA (EC50, μM)",STING,inactive
"CCn1nc(C)cc1C(=O)Nc1nc2cc(C(N)=O)cc3c2n1[C@@H](CCCCNC(=O)OCc1cccnc1)CO3 [Example 18, Pyridin-3-ylmethyl (S)-(4-(7-carbamoyl-2-(1-ethyl-3-methyl-1H-pyrazole-5-carboxamido)-3,4-dihydro-5-oxa-1,2a-diazaacenaphthylen-3-yl)butyl)carbamate]","Fold change related to DMSO control, WT",STING variants (WT); [5],1.58 fold
same,"Fold change related to DMSO control, HAQ",STING variants (HAQ); [5],17.64 fold
same,"hIFNβ ELISA (EC50, μM)",STING,inactive
"CCn1nc(C)cc1C(=O)Nc1nc2cc(C(N)=O)cc3c2n1[C@@H](CCCCNC(=O)OCc1ccccn1)CO3 [Example 19, Pyridin-2-ylmethyl (S)-(4-(7-carbamoyl-2-(1-ethyl-3-methyl-1H-pyrazole-5-carboxamido)-3,4-dihydro-5-oxa-1,2a-diazaacenaphthylen-3-yl)butyl)carbamate]","Fold change related to DMSO control, WT",STING variants (WT); [6],1.65 fold
same,"Fold change related to DMSO control, HAQ",STING variants (HAQ); [6],20.80 fold
same,"hIFNβ ELISA (EC50, μM)",STING,inactive
"CCn1nc(C)cc1C(=O)Nc1nc2cc(C(N)=O)cc3c2n1[C@@H](CCCCNC(=O)OCc1ccncc1)CO3 [Example 20, Pyridin-4-ylmethyl (S)-(4-(7-carbamoyl-2-(1-ethyl-3-methyl-1H-pyrazole-5-carboxamido)-3,4-dihydro-5-oxa-1,2a-diazaacenaphthylen-3-yl)butyl)carbamate]","Fold change related to DMSO control, WT",STING variants (WT); [7],1.43 fold
same,"Fold change related to DMSO control, HAQ",STING variants (HAQ); [7],16.22 fold
same,"hIFNβ ELISA (EC50, μM)",STING,inactive
"CCn1nc(C)cc1C(=O)Nc1nc2cc(C(N)=O)cc3c2n1[C@@H](C)CCO3 [Example 22, (S)-1-(1-Ethyl-3-methyl-1H-pyrazole-5-carboxamido)-9-methyl-8,9-dihydro-7H-6-oxa-2,9a-diazabenzo[cd]azulene-4-carboxamide]","Fold change related to DMSO control, WT",STING variants (WT); compound concentration 25 μM,3.02 fold
same,"Fold change related to DMSO control, HAQ",STING variants (HAQ); compound concentration 25 μM,95.64 fold
same,"hIFNβ ELISA (EC50, μM)",STING,inactive
"CCC[C@H]1COc2cc(C(N)=O)cc3nc(NC(=O)c4cc(C)nn4CC)n1c23 [Example 23, (S)-2-(1-Ethyl-3-methyl-1H-pyrazole-5-carboxamido)-3-propyl-3,4-dihydro-5-oxa-1,2a-diazacenaphthylene-7-carboxamide]","Fold change related to DMSO control, WT",STING variants (WT); compound concentration 25 μM,2.62 fold
same,"Fold change related to DMSO control, HAQ",STING variants (HAQ); compound concentration 25 μM,81.27 fold
same,"hIFNβ ELISA (EC50, μM)",STING,inactive
"CCn1nc(C)cc1C(=O)Nc1nc2cc(C(N)=O)cc3c2n1[C@@H](Cc1ccccc1)CO3 [Example 24, (S)-3-Benzyl-2-(1-ethyl-3-methyl-1H-pyrazole-5-carboxamido)-3,4-dihydro-5-oxa-1,2a-diazaacenaphthylene-7-carboxamide]","Fold change related to DMSO control, WT",STING variants (WT); compound concentration 25 μM,2.33 fold
same,"Fold change related to DMSO control, HAQ",STING variants (HAQ); compound concentration 25 μM,65.85 fold
same,"hIFNβ ELISA (EC50, μM)",STING,inactive
"CCn1nc(C)cc1C(=O)Nc1nc2cc(C(N)=O)cc3c2n1[C@@H](C(C)C)CO3 [Example 25, (S)-2-(1-Ethyl-3-methyl-1H-pyrazole-5-carboxamido)-3-isopropyl-3,4-dihydro-5-oxa-1,2a-diazaacenaphthylene-7-carboxamide]","Fold change related to DMSO control, WT",STING variants (WT); compound concentration 25 μM,2.24 fold
same,"Fold change related to DMSO control, HAQ",STING variants (HAQ); compound concentration 25 μM,56.18 fold
same,EC50,STING,> 16.7 µM
